Source: US20200009029A1, “COSMETIC COMPOSITION COMPRISING WATER DEPLETED IN 2H AND 18O ISOTOPS” (MEDENA AG, priority 2016, published 2020)

Key:
[1] = Superoxide scavenging activity (antioxidant capacity), superoxide dismutase dependent reduction of cytochrome c; format: biochemical
[2] = Stability of verbascoside in merystem cell homogenate / carboxyl methyl cellulose mixture over thirty days (HPLC); format: physicochemical; details: 0.1 weight-% carboxyl methyl cellulose, initial 100 μM, darkness, 25° C., 30 days
Description: Merystem plant cells containing highly oxydisable active principles such as polyphenols (in this example verbascoside) were homogenized in ^18O and ^2H depleted (De-O,D) water having a concentration of 99.894 weight-% (and for comparison in distilled natural water). A hydrogel-forming substance, namely carboxyl methyl cellulose was added to the solutions in a concentration of 0.1 weight-%. The final concentration of verbascoside in the mixture was determined to be 100 μM by HPLC method using chromatographic standard of verbascoside. This concentration corresponds to 6 mg/100 ml or 0.006 weight-%. The maximum of the absorbance spectrum was obtained at 278 nm and retention time 15.65 min. The mixture was left in darkness at room temperature (25° C.) for thirty days. After this period, the mixture was analyzed for the presence and concentration of verbascoside.

- presence and concentration of verbascoside after thirty days (HPLC) ([2]; mixture in 18O and 2H depleted (De-O,D) water): retained practically the initial levels
- presence and concentration of verbascoside after thirty days (HPLC) ([2]; mixture in distilled natural water): did not contain any measurable amounts
Compound: C[C@@H]1O[C@@H](O[C@@H]2[C@@H](O)[C@H](OCCc3ccc(O)c(O)c3)O[C@H](CO)[C@H]2OC(=O)/C=C/c2ccc(O)c(O)c2)[C@H](O)[C@H](O)[C@H]1O [verbascoside]
- superoxide scavenging activity (antioxidant capacity) ([1]; mixture in natural water, day 30): not measurable
- superoxide scavenging activity (antioxidant capacity) ([1]; mixture with De-O,D water, carboxy methyl cellulose and merystem cell homogenate, to day 30): remained practically unchanged
- superoxide scavenging activity (antioxidant capacity) ([1]; mixtures of Example 1, day 0): possessed superoxide scavenging activity
